# Results: patent publication US10774064B2 (Cadent Therapeutics, Inc., priority 2016, dated 2020)
# Target: T1, small-conductance Ca2+-activated K+ channels (SK channels, subtype 2) (Homo sapiens, UniProt Q9H2S1)
# T1 construct: expressed in transfected cells; host or cells: HEK293
# Assay: whole-cell patch-clamp of ionic current through SK2 channels in HEK293 cells (SC100)
# Format: cell-based
# Conditions: concentration that increases the basal current by 100%; HEK293 cells expressing SK2 channels
# Summary of the method: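 SC100, the concentration doubling basal current (a 100% increase), was taken from SK2 currents recorded by whole-cell patch-clamp in SK2-expressing HEK293 cells.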
row,SMILES,SC100
1,"Cc1cc(C)n(-c2cc(N[C@@H]3CCN(C)C3=O)cc(NC3CCC(F)(F)CC3)n2)n1 (single isomer, unassigned) [Compound 139, (−)-3-((2-((4,4-difluorocyclohexyl)amino)-6-(3,5-dimethyl-1H-pyrazol-1-yl)pyridin-4-yl)amino)-1-methylpyrrolidin-2-one]",+ (+ means >1 uM)
2,"FCc1ccn(-c2nc(NC3CCC(F)(F)CC3)cc(OC3CC(F)C3)n2)n1 (stereo not shown) [Compound 346, N-(4,4-difluorocyclohexyl)-6-(3-fluorocyclobutoxy)-2-(3-(fluoromethyl)-1H-pyrazol-1-yl)pyrimidin-4-amine]",+ (+ means >1 uM)
3,"Cc1cc(NC2CCC(F)(F)CC2)nc(-n2cc(C)c(CO)n2)n1 [Compound 236, (1-(4-((4,4-difluorocyclohexyl)amino)-6-methylpyrimidin-2-yl)-4-methyl-1H-pyrazol-3-yl)methanol]",+ (+ means >1 uM)
4,"CC(=O)N1CCN(c2cc(NC3CCC(C(F)(F)F)CC3)nc(-n3nc(C)cc3C)n2)CC1 (stereo not shown) [Compound 149, 1-(4-(2-(3,5-dimethyl-1H-pyrazol-1-yl)-6-((4-(trifluoromethyl)cyclohexyl)amino)pyrimidin-4-yl)piperazin-1-yl)ethan-1-one]",++ (++ means 200 nM-1000 nM)
5,"Cc1cc(C)n(-c2nc(NC3CCC(F)(F)CC3)cc([C@H](C)O)n2)n1 [Compound 199, (+)1-(6-((4,4-difluorocyclohexyl)amino)-2-(3,5-dimethyl-1H-pyrazol-1-yl)pyrimidin-4-yl)ethan-1-ol]",++ (++ means 200 nM-1000 nM)
6,"Cc1cc(C)n(-c2cccc(N(C)C3CCC(F)(F)CC3)n2)n1 [Compound 166, N-(4,4-difluorocyclohexyl)-6-(3,5-dimethyl-1H-pyrazol-1-yl)-N-methylpyridin-2-amine]",+ (+ means >1 uM)

# Same assay, conditions: whole-cell patch-clamp, HEK293 cells expressing SK2 channels; concentration that increases the basal current by 100%
SMILES,SC100 (μM),SC100 [µM]
"COC(=O)N1CC(Oc2cc(NC3CCC(C(F)(F)F)CC3)nc(-c3nc(C)cs3)n2)C1 (stereo not shown) [NSSy6078, methyl 3-((2-(4-methylthiazol-2-yl)-6-((4-(trifluoromethyl)cyclohexyl)amino)pyrimidin-4-yl)oxy) azetidine-1-carboxylate]",+ (+ means >1 uM),
"CC(=O)c1cc(NC2CCC(F)(F)CC2)nc(-n2ccc(C(F)(F)F)n2)n1 [IN11053-059-P1, 1-(6-((4,4-difluorocyclohexyl)amino)-2-(3-(trifluoromethyl)-1H-pyrazol-1-yl)pyrimidin-4-yl)ethan-1-one]",+ (+ means >1 uM),
Cc1csc(-c2nc(NC3CCC(F)(F)CC3)cc(S(C)(=O)=O)n2)n1 [IN11054-046-P1],+ (+ means >1 uM),
"CSc1cc(NC2CCC(F)(F)CC2)nc(-n2nc(C)cc2C)n1 [IN11067-060-P1, N-(4,4-difluorocyclohexyl)-2-(3,5-dimethyl-1H-pyrazol-1-yl)-6-(methylthio)pyrimidin-4-amine]",+ (+ means >1 uM),
COC(=O)N(C)C1CC(Oc2cc(NC3CCC(F)(F)CC3)nc(-c3nc(C)cs3)n2)C1 (stereo not shown) [NSSy5730],++ (++ means 200 nM-1000 nM),
COC(=O)N1CCC(Oc2cc(NC3CCC(F)(F)CC3)nc(-c3nc(C)cs3)n2)C1 (stereo not shown) [IN10973-025-P1],,1
"Cc1ccnn1-c1cc(C#N)cc(NC2CCC(F)(F)CC2)n1 [IN10967-061-P1, 2-((4,4-difluorocyclohexyl)amino)-6-(5-methyl-1H-pyrazol-1-yl)isonicotinonitrile]",+ (+ means >1 uM),
"COCc1cc(-n2ccc(C)n2)nc(NC2CCC(F)(F)CC2)n1 [NSSy6744, N-(4,4-difluorocyclohexyl)-4-(methoxymethyl)-6-(3-methyl-1H-pyrazol-1-yl)pyrimidin-2-amine]",++ (++ means 200 nM-1000 nM),
Cc1ccn(-c2cc(OCc3cnco3)cc(NC3CCC(F)(F)CC3)n2)n1 [IN11177-056-P1],+++ (+++ means <200 nM),
CN(C)C1CN(c2cc(Nc3ccc(F)cc3)nc(-n3ccc(CF)n3)c2)C1 [NSSy5713],+ (+ means >1 uM),
"Cc1csc(N2C[C@@H](Nc3ccc([N+](=O)[O-])cc3)C[C@H](N3CCOCC3)C2)n1 [NSSy6342, (3S,5S)-1-(4-methylthiazol-2-yl)-5-morpholino-N-(4-nitrophenyl)piperidin-3-amine]",+ (+ means >1 uM),
"Cc1csc(-c2nc(NC3CCC(F)(F)CC3)cc(C(C)S(C)(=O)=O)n2)n1 (stereo not shown) [IN10973-053-P1, N-(4,4-difluorocyclohexyl)-6-(1-(methylsulfonyl)ethyl)-2-(4-methylthiazol-2-yl)pyrimidin-4-amine]",+ (+ means >1 uM),
"COC(=O)N1CC(Oc2cc(NC3CC=C(C)CC3)nc(-c3nc(C)cs3)n2)C1 (stereo not shown) [NSSy5854, methyl 3-((6-((4-methylcyclohex-3-en-1-yl)amino)-2-(4-methylthiazol-2-yl)pyrimidin-4-yl)oxy)azetidine-1-carboxylate]",++ (++ means 200 nM-1000 nM),
COC(=O)N1CC(Oc2cc(NC3CC=CCC3)nc(-n3ccc(C)n3)n2)C1 (stereo not shown) [NSSy5786],++ (++ means 200 nM-1000 nM),
Cc1csc(-c2nc(NC3CCC(F)(F)CC3)cc(N3CCC(F)CC3)n2)n1 [IN10864-33.P1],++ (++ means 200 nM-1000 nM),
"OCCN(CCO)c1cc(NC2CCC(F)(F)CC2)nc(-n2ccc(CO)n2)n1 [IN11337-019-P1, 2,2′-((6-((4,4-difluorocyclohexyl)amino)-2-(3-(hydroxymethyl)-1H-pyrazol-1-yl)pyrimidin-4-yl)azanediyl)bis-(ethan-1-ol)]",+ (+ means >1 uM),
Cc1ccn(-c2nc(NC3C(C)CCCC3C)cc(C(C)O)n2)n1 (stereo not shown) [IN10881-060-P1],+ (+ means >1 uM),
"Cc1cc(NC2CCC(F)(F)CC2)nc(-n2ccc(OC(F)F)n2)n1 [NSSy7059, N-(4,4-difluorocyclohexyl)-2-(3(difluoromethoxy)-1H-pyrazol-1-yl)-6-methylpyrimidin-4-amine]",++ (++ means 200 nM-1000 nM),
COC(=O)N1CC(Oc2cc(NC3CCC(F)(F)CC3)nc(-c3nc(C)ns3)n2)C1 [NSSy5857],++ (++ means 200 nM-1000 nM),

SMILES,SC100 (μM),SC100 [µM]
"Cc1csc(-c2nc(NC3CCC(F)(F)CC3)cc(C(C)C#N)n2)n1 (stereo not shown) [IN11104-094-P1, 2-(6-((4,4-difluorocyclohexyl)amino)-2-(4-methylthiazol-2-yl)pyrimidin-4-yl) propanenitrile]",++ (++ means 200 nM-1000 nM),
Cc1csc(-c2cc(N3CCN(C4COC4)CC3)cc(NC3CCC(F)(F)CC3)n2)n1 [NSSy5819],++ (++ means 200 nM-1000 nM),
"Cc1ccn(-c2cc3c(c(N4CCOCC4)n2)CCN3)n1 [IN11130-005-P1, 4-(6-(3-methyl-1H-pyrazol-1-yl)-2,3-dihydro-1H-pyrrolo[3,2-c]pyridin-4-yl)morpholine]",+ (+ means >1 uM),
"Cc1csc(-c2cc(C(O)Cc3nnco3)cc(NC3CCC(F)(F)CC3)n2)n1 (stereo not shown) [NSSy6782, 1-(2-((4,4-difluorocyclohexyl)amino)-6-(4-methylthiazol-2-yl)pyridin-4-yl)-2-(1,3,4-oxadiazol-2-yl)ethan-1-ol]",++ (++ means 200 nM-1000 nM),
Cc1csc(-c2cc(CN(C)C=O)cc(NC3CCC(F)(F)CC3)n2)n1 [IN11133-069-P1],+++ (+++ means <200 nM),
CC(=O)N1CCN(c2cc(-n3ccc(CF)n3)nc(NC3CCC(F)(F)CC3)n2)CC1 [NSSy6917],++ (++ means 200 nM-1000 nM),
"CC(=O)N1CCN(c2cc(-n3nccc3C3CC3)nc(NC3CCC(F)(F)CC3)n2)CC1 [NSSy6957, 1-(4-(6-(5-cyclopropyl-1H-pyrazol-1-yl)-2-((4,4-difluorocyclohexyl)amino)pyrimidin-4-yl)piperazin-1-yl)ethan-1-one]",+ (+ means >1 uM),
Cc1ccn(-c2nc(C(C)O)cc(N3CCCCC3)n2)n1 (stereo not shown) [IN10882-055-P1],+ (+ means >1 uM),
Cc1ccn(-c2nc(C(C)O)cc(N3CCCC4CCCCC43)n2)n1 (stereo not shown) [IN10881-054-P1],+ (+ means >1 uM),
"FC1(F)CCC(Nc2cc(N3CCOCC3)nc(-n3cccn3)n2)CC1 [IN10973-038-P1, N-(4,4-difluorocyclohexyl)-6-morpholino-2-(1H-pyrazol-1-yl)pyrimidin-4-amine]",+ (+ means >1 uM),
"Cc1nccc(-c2cc(N3CCOCC3)cc(NC3CCC(F)(F)CC3)n2)n1 [IN11104-095-P1, N-(4,4-difluorocyclohexyl)-6-(2-methylpyrimidin-4-yl)-4-morpholinopyridin-2-amine]",+ (+ means >1 uM),
CSc1cc(NC2CCC(F)(F)CC2)nc(-n2ccc(C)n2)n1 [IN11059-070-P1],++ (++ means 200 nM-1000 nM),
[2H]C1([2H])OC([2H])([2H])C([2H])([2H])N(c2cc(NC3CCC(F)(F)CC3)nc(-n3ccc(C)n3)n2)C1([2H])[2H] [IN11196-039-P1],++ (++ means 200 nM-1000 nM),
"COC(=O)N(C)C1CC(Oc2cc(NC3CCC(F)(F)CC3)nc(-n3ccc(C)n3)n2)C1 (stereo not shown) [NSSy5672, methyl (3-((6-((4,4-difluorocyclohexyl)amino)-2-(3-methyl-1H-pyrazol-1-yl)pyrimidin-4-yl)oxy)cyclobutyl)(methyl)carbamate]",++ (++ means 200 nM-1000 nM),
"Cc1csc(-c2nc(NC3CCC(F)(F)CC3)cc(C(C)(C)O)n2)n1 [IN11030-083-P1, 2-(6-((4,4-difluorocyclohexyl)amino)-2-(4-methylthiazol-2-yl)pyrimidin-4-yl) propan-2-ol]",++ (++ means 200 nM-1000 nM),
"CC(=O)c1cc(NC2CCCCC2(F)F)nc(-c2nc(C)cs2)n1 (stereo not shown) [IN11140-081-P1, 1-(6-((2,2-difluorocyclohexyl)amino)-2-(4-methylthiazol-2-yl)pyrimidin-4-yl) ethan-1-one]",+ (+ means >1 uM),
"Cc1csc(-c2nc(NC3CCC(F)(F)CC3)cc(C(C)C)n2)n1 [IN11177-064-P1, N-(4,4-difluorocyclohexyl)-6-isopropyl-2-(4-methylthiazol-2-yl)pyrimidin-4-amine]",++ (++ means 200 nM-1000 nM),
CCOC(=O)c1cn(-c2nc(NC3CCC(F)(F)CC3)cc(N3CCOCC3)n2)nc1C [IN11216-043-P1],+ (+ means >1 uM),
